From patent US4640922A, “3N-substituted 3,4-dihydropyrimidines as agents for treating disorders of cardiovascular system” (Suntory Limited, priority 1984, dated 1987)
Read-outs that look alike come from different tables or passages of the source.

Key:
[1] = tested on: coronary artery (isolated heart); experiment: Coronary vascular dilative effect, isolated perfused guinea pig heart, Langendorff's method (perfusion pressure); conditions: for Pharmacological data ED50: 0.1 ml injected into coronary artery, isolated guinea pig heart, 37° C., 6 ml/minute
Procedure: The coronary vascular dilative effect of 3N-substituted 3,4-dihydropryrimidine derivatives was tested.
Heartly guinea pigs (weight 400-500 g) were clubbed dead and their hearts were immediately isolated. The hearts were perfused with Krebs-Henseleit solution bubbled with a mixture of 95% O2 +5% CO2 and maintained at 37° C. at a certain rate of 6 ml/minute according to Langendorff's method [J. Pharmacol. Methods 2, 143 (1979)]. The perfusion pressure was determined by a pressure transducer. Samples were prepared by dissolving 1 mg of a test compound in 1 ml of a mixture of dimethylsulfoxide and physiological saline (1:9) and diluting with physiological saline the solution to the predetermined concentration. 0.1 ml of the diluted solution was administered into the coronary artery via a rubber tube connected to an aorta cannula to obtain ED50 (μg/heart) data as shown in Table 1. The numbers of the compounds in the Table correspond respectively to those of the working examples described above.

vertebral artery = experiment: Blood flow and blood vessel resistance of vertebral artery in anesthetized dogs; assay type: in vivo, dog; conditions: Canis lupus familiaris, iv
Procedure: (§1) The pharmacological effects of the compounds of the present invention with respect to the blood flow and blood vessel resistance of vertebral artery and systemic blood pressure (average pressure) in anesthetized dogs. […] The first and second ribs were cut open to expose the left vertebral artery. A probe was attached to the origin of the artery and the blood flow was measured with an electromagnetic rheometer (Model MF-27, product of Nihon Koden K.K.) At the same time, continuous measurement of the following parameters was made: systemic blood pressure (average pressure) at the right femoral artery, the ECG in the second induction period, the heart beat with a tachometer driven by the R wave, and the blood vessel resistance determined by loading a multiplication/division unit (EO-601 G, product of Nihon Koden K.K.) with the average values of blood pressure and blood flow in the vertebral artery. All of these parameters were recorded simultaneously on a polygraph (RM-600, product of Nihon Koden, K.K.) All of the test compounds were injected through a cannula inserted into the femoral […].

systemic blood pressure = experiment: Systemic blood pressure (average pressure) in anesthetized dogs; assay type: in vivo, dog; conditions: Canis lupus familiaris, iv, read-out: Average blood pressure, percentage compared with control
Procedure: as §1

[2] = 0.001 mg/kg, % of value before administration, average ± standard error, read-out: Vertebral artery vessel resistance, percentage compared with control
[3] = % of value before administration, average ± standard error, read-out: Vertebral artery blood flow, percentage compared with control
[4] = % of value before administration, average ± standard error, read-out: Vertebral artery vessel resistance, percentage compared with control
[5] = read-out: Vertebral artery blood flow, percentage compared with control
[6] = read-out: Vertebral artery vessel resistance, percentage compared with control

With CCOC(=O)C1=C(Cl)N=C(C)N(C(=O)OC)C1c1cccc([N+](=O)[O-])c1 (stereo not drawn) [Compound 2, 6-Chloro-5-ethoxycarbonyl-3-N-methoxycarbonyl-2-methyl-4-(3'-nitrophenyl)-3,4-dihydropyrimidine] the “Pharmacological data ED50” value [1] was 0.98 μg/heart.
With CCOC(=O)C1=C(C)N=C(C)N(C(=O)OC)C1c1cccc([N+](=O)[O-])c1 (stereo not drawn) [Compound 3, 2,6-Dimethyl-5-ethoxycarbonyl-3-N-methoxycarbonyl-4-(3'-nitrophenyl)-3,4-dihydropyrimidine] the “Pharmacological data ED50” value [1] was 1.45 μg/heart.
With CCOC(=O)C1=C(C)N=C(C)N(C(=O)OC)C1c1ccccc1[N+](=O)[O-] (stereo not drawn) [Compound 5] the “Pharmacological data ED50” value [1] was 0.066 μg/heart and the “coronary vascular dilative effects (in words)” value ([1]; Langendorff's method, guinea pig heart) was “extremely strong coronary vascular dilative effects”.
For CCOC(=O)C1=C(Cl)N=C(C)N(C(=O)OC)C1c1ccccc1[N+](=O)[O-] (stereo not drawn) [Compound 6], the “Pharmacological data ED50” value [1] was 0.70 μg/heart.
For CCOC(=O)N1C(C)=NC(C)=C(C(=O)OC)C1c1ccccc1[N+](=O)[O-] (stereo not drawn) [Compound 7], the “Pharmacological data ED50” value [1] was 0.40 μg/heart.
For CCOC(=O)N1C(C)=NC(Cl)=C(C(=O)OC)C1c1ccccc1[N+](=O)[O-] (stereo not drawn) [Compound 9], the “Pharmacological data ED50” value [1] was 0.78 μg/heart.
COC(=O)C1=C(Cl)N=C(C)N(C(=O)OC)C1c1ccccc1[N+](=O)[O-] (stereo not drawn) [Compound 11] was tested, and the “Pharmacological data ED50” value [1] was 1.65 μg/heart.
For CCOC(=O)N1C(C)=NC(C)=C(C(=O)OC)C1c1cccc([N+](=O)[O-])c1 (stereo not drawn) [Compound 14], the “Pharmacological data ED50” value [1] was 1.1 μg/heart.
For COC(=O)C1=C(Cl)N=C(C)N(C(=O)OC)C1c1cccc([N+](=O)[O-])c1 (stereo not drawn) [Compound 15], the “Pharmacological data ED50” value [1] was 2.8 μg/heart.
In the case of CCOC(=O)N1C(C)=NC(Cl)=C(C(=O)OC)C1c1cccc([N+](=O)[O-])c1 (stereo not drawn) [Compound 16], the “Pharmacological data ED50” value [1] is reported as 10.0 μg/heart.
For CCOC(=O)C1=C(Cl)N=C(C)N(C(=O)OCC)C1c1ccc(SC)cc1 (stereo not drawn) [Compound 18], the “Pharmacological data ED50” value [1] was 0.37 μg/heart.
For CCOC(=O)C1=C(C)N=C(C)N(C(=O)OCC)C1c1ccc(SC)cc1 (stereo not drawn) [Compound 19], the “Pharmacological data ED50” value [1] was 0.58 μg/heart.
In the case of CCOC(=O)C1=C(Cl)N=C(C)N(C(=O)OC)C1c1ccc(SC)cc1 (stereo not drawn) [Compound 20], the “Pharmacological data ED50” value [1] is reported as 0.22 μg/heart.
CCOC(=O)C1=C(C)N=C(C)N(C(=O)OC)C1c1ccc(SC)cc1 (stereo not drawn) [Compound 21] was tested, and the “Pharmacological data ED50” value [1] was 1.0 μg/heart.
COC(=O)C1=C(C)NC(C)=C(C(=O)OCCN(C)Cc2ccccc2)C1c1cccc([N+](=O)[O-])c1 (stereo not drawn) [Nicardipine, reference compound] was tested, and the response vs control in vivo at 0.001 mg/kg (vertebral artery; 0.001 mg/kg, % of value before administration, average ± standard error, read-out: Vertebral artery blood flow, percentage compared with control) was 123 ± 7%, the response vs control in vivo at 0.001 mg/kg (vertebral artery; [2]) was 79 ± 4% and the response vs control in vivo at 0.003 mg/kg (vertebral artery; [3]) was 147 ± 15%. For the same compound, the response vs control in vivo at 0.003 mg/kg (vertebral artery; [4]) was 67 ± 7%, the response vs control in vivo at 0.01 mg/kg (vertebral artery; [3]) was 183 ± 13% and the response vs control in vivo at 0.01 mg/kg (vertebral artery; [4]) was 49 ± 3%. It also gave a response vs control in vivo at 0.001 mg/kg (systemic blood pressure; 0.001 mg/kg, % of value before administration, average ± standard error) of 90 ± 1%, a response vs control in vivo at 0.003 mg/kg (systemic blood pressure; 0.003 mg/kg, % of value before administration, average ± standard error) of 87 ± 2% and a response vs control in vivo at 0.01 mg/kg (systemic blood pressure; 0.01 mg/kg, % of value before administration, average ± standard error) of 80 ± 2%.
With COC(=O)C1=C(C)NC(C)=C(C(=O)OC)C1c1ccccc1[N+](=O)[O-] [Nifedipine, reference compound] the response vs control in vivo at 0.0001 mg/kg (vertebral artery; [5]) was 114%, the response vs control in vivo at 0.0003 mg/kg (vertebral artery; [5]) was 129% and the response vs control in vivo at 0.001 mg/kg (vertebral artery; [5]) was 154%. For the same compound, the response vs control in vivo at 0.0001 mg/kg (vertebral artery; 0.0001 mg/kg, % of value before administration, read-out: Vertebral artery vessel resistance, percentage compared with control) was 79%, the response vs control in vivo at 0.0003 mg/kg (vertebral artery; 0.0003 mg/kg, % of value before administration, average ± standard error, read-out: Vertebral artery vessel resistance, percentage compared with control) was 67% and the response vs control in vivo at 0.001 mg/kg (vertebral artery; [2]) was 57%. For the same compound, the response vs control in vivo at 0.0001 mg/kg (systemic blood pressure) was 94%, the response vs control in vivo at 0.0003 mg/kg (systemic blood pressure) was 94% and the response vs control in vivo at 0.001 mg/kg (systemic blood pressure) was 87%.
Work on COc1ccc(Cc2nccc3cc(OC)c(OC)cc23)cc1OC [Papaverine, reference compound] yielded a response vs control in vivo at 0.1 mg/kg (vertebral artery; [5]) of 123 ± 4%, a response vs control in vivo at 0.3 mg/kg (vertebral artery; [5]) of 151 ± 8% and a response vs control in vivo at 1 mg/kg (vertebral artery; [5]) of 184 ± 14%. The response vs control in vivo at 0.1 mg/kg (vertebral artery; [6]) was 78 ± 3%, the response vs control in vivo at 0.3 mg/kg (vertebral artery; [6]) was 58 ± 3% and the response vs control in vivo at 1 mg/kg (vertebral artery; [6]) was 43 ± 3%. For the same compound, the response vs control in vivo at 0.1 mg/kg (systemic blood pressure) was 93 ± 1%, the response vs control in vivo at 0.3 mg/kg (systemic blood pressure) was 83 ± 3% and the response vs control in vivo at 1 mg/kg (systemic blood pressure) was 73 ± 4%.
